In patent US4228292A, “N-Substituted benzothiazolines and benzoxazolines and their use as herbicides and plant growth regulants” (Monsanto Company, priority 1978, dated 1980):

Key:
[1] = system: soybean plants; experiment: plant growth regulating activity on soybean plants; type: in vivo, variety Williams
Description: A number of soybean plants, variety Williams, were grown from seeds in plastic pots in the greenhouse for a period of one week at which time the plants are thinned to one plant per pot. When the second trifoliate leaf (three weeks) was fully expanded, the plants were treated with a solution of the active ingredient in acetone and water. Aqueous Tween 20 was used as a surfactant.
When the fifth trifoliate leaf (four to five weeks) was fully expanded, the treated plants were compared with the non-treated control plants and the observations recorded.

[2] = system: Soybean; experiment: pre-emergent herbicidal test; type: in vivo; settings: L; note: ranges in brackets are in %
Description: (§1) The pre-emergent test was conducted as follows:
(§2) A good grade of top soil was placed in aluminum pans and compactd to a depth of 0.95 to 1.27 cm. from the top of the pan. On the top of the soil was placed a predetermined number of seeds or vegetative propagules of various plant species. The soil required to level fill the pans after seeding or adding vegetative propagules was weighed into a pan. A known amount of the herbicidal active ingredient applied in a solvent or as a wettable powder and the soil were thoroughly mixed, and used as a cover layer for prepared pans. After treatment the pans were moved into a greenhouse bench where they were watered from below as needed to give adequate moisture for germination and growth.
(§3) A herbicidal rating code was used to signify the extent of phytotoxicity of each species. The ratings are defined as follows: […]

[3] = system: Hemp Sesbania; experiment: pre-emergent herbicidal test; type: in vivo; settings: R; note: ranges in brackets are in %
Description: as §1, §2, §3

[4] = system: Wheat; experiment: pre-emergent herbicidal test; type: in vivo; settings: N; note: ranges in brackets are in %
Description: as §1, §2, §3

[5] = system: Rice; experiment: pre-emergent herbicidal test; type: in vivo; settings: O; note: ranges in brackets are in %
Description: as §1, §2, §3

[6] = system: Wild Buckwheat; experiment: pre-emergent herbicidal test; type: in vivo; settings: Q; note: ranges in brackets are in %
Description: as §1, §2, §3

[7] = system: Sorghum; experiment: pre-emergent herbicidal test; type: in vivo; settings: P; note: ranges in brackets are in %
Description: as §1, §2, §3

[8] = system: Sugar Beet; experiment: pre-emergent herbicidal test; type: in vivo; settings: M; note: ranges in brackets are in %
Description: as §1, §2, §3

[9] = system: Crabgrass; experiment: pre-emergent herbicidal test; type: in vivo; settings: T; note: ranges in brackets are in %
Description: as §1, §2, §3

[10] = system: Panicum Spp; experiment: pre-emergent herbicidal test; type: in vivo; settings: S; note: ranges in brackets are in %
Description: as §1, §2, §3

[11] = system: Soybean; experiment: post-emergent herbicidal test; type: in vivo; settings: L; note: ranges in brackets are in %
Description: (§4) The post-emergent tests were conducted as follows:
(§5) The herbicidal active ingredients are applied in spray form to two or three-week old specimens of various plant species. The spray, a solution or wettable powder suspension containing the appropriate rate of herbicidal active ingredient to give the desired test rate and a surfactant, is applied to the plants. The treated plants are placed in a greenhouse and approximately two or four weeks later the effects are observed and recorded. The results are shown in Tables IX and X in which the post-emergent herbicidal rating code is as follows: […]

[12] = system: Hemp Sesbania; experiment: post-emergent herbicidal test; type: in vivo; settings: R; note: ranges in brackets are in %
Description: as §4, §5

[13] = system: Wheat; experiment: post-emergent herbicidal test; type: in vivo; settings: N; note: ranges in brackets are in %
Description: as §4, §5

[14] = system: Rice; experiment: post-emergent herbicidal test; type: in vivo; settings: O; note: ranges in brackets are in %
Description: as §4, §5

[15] = system: Wild Buckwheat; experiment: post-emergent herbicidal test; type: in vivo; settings: Q; note: ranges in brackets are in %
Description: as §4, §5

[16] = system: Sorghum; experiment: post-emergent herbicidal test; type: in vivo; settings: P; note: ranges in brackets are in %
Description: as §4, §5

[17] = system: Sugar Beet; experiment: post-emergent herbicidal test; type: in vivo; settings: M; note: ranges in brackets are in %
Description: as §4, §5

[18] = system: Crabgrass; experiment: post-emergent herbicidal test; type: in vivo; settings: T; note: ranges in brackets are in %
Description: as §4, §5

[19] = system: Panicum Spp; experiment: post-emergent herbicidal test; type: in vivo; settings: S; note: ranges in brackets are in %
Description: as §4, §5

COC(=N)C(C)n1c(=O)sc2cc(Br)ccc21 (stereo not drawn) [Compound 34]
plant growth regulant observations ([1]; 0.112 kg/h): Leaf alteration of new growth.

COC(=N)Cn1c(=O)sc2cc(Br)ccc21 [Compound 33]
pre-emergent herbicidal rating ([2]; 0.28 kg/h, 2 WAT): 0 (0-24) | pre-emergent herbicidal rating ([2]; 1.12 kg/h, 2 WAT): 0 (0-24) | pre-emergent herbicidal rating ([2]; 5.6 kg/h, 4 WAT): 1 (25-49) | pre-emergent herbicidal rating ([3]; 0.28 kg/h, 2 WAT): 0 (0-24) | pre-emergent herbicidal rating ([3]; 1.12 kg/h, 2 WAT): 0 (0-24) | pre-emergent herbicidal rating ([3]; 5.6 kg/h, 4 WAT): 0 (0-24) | pre-emergent herbicidal rating ([4]; 0.28 kg/h, 2 WAT): 0 (0-24) | pre-emergent herbicidal rating ([4]; 1.12 kg/h, 2 WAT): 0 (0-24) | pre-emergent herbicidal rating ([4]; 5.6 kg/h, 4 WAT): 0 (0-24) | pre-emergent herbicidal rating ([5]; 0.28 kg/h, 2 WAT): 0 (0-24) | pre-emergent herbicidal rating ([5]; 1.12 kg/h, 2 WAT): 0 (0-24) | pre-emergent herbicidal rating ([5]; 5.6 kg/h, 4 WAT): 0 (0-24) | pre-emergent herbicidal rating ([6]; 0.28 kg/h, 2 WAT): 0 (0-24) | pre-emergent herbicidal rating ([6]; 1.12 kg/h, 2 WAT): 0 (0-24) | pre-emergent herbicidal rating ([6]; 5.6 kg/h, 4 WAT): 1 (25-49) | pre-emergent herbicidal rating ([7]; 0.28 kg/h, 2 WAT): 0 (0-24) | pre-emergent herbicidal rating ([7]; 1.12 kg/h, 2 WAT): 0 (0-24) | pre-emergent herbicidal rating ([7]; 5.6 kg/h, 4 WAT): 0 (0-24) | pre-emergent herbicidal rating ([8]; 0.28 kg/h, 2 WAT): 0 (0-24) | pre-emergent herbicidal rating ([8]; 1.12 kg/h, 2 WAT): 0 (0-24) | pre-emergent herbicidal rating ([8]; 5.6 kg/h, 4 WAT): 1 (25-49) | pre-emergent herbicidal rating ([9]; 0.28 kg/h, 2 WAT): 0 (0-24) | pre-emergent herbicidal rating ([9]; 1.12 kg/h, 2 WAT): 0 (0-24) | pre-emergent herbicidal rating ([9]; 5.6 kg/h, 4 WAT): 0 (0-24) | pre-emergent herbicidal rating ([10]; 0.28 kg/h, 2 WAT): 0 (0-24) | pre-emergent herbicidal rating ([10]; 1.12 kg/h, 2 WAT): 0 (0-24) | pre-emergent herbicidal rating ([10]; 5.6 kg/h, 4 WAT): 0 (0-24) | plant growth regulant observations ([1]; 0.112 kg/h): Inhibition of dry weight.

COC(=N)CCn1c(=O)sc2cc(Br)ccc21 [Compound 36]
plant growth regulant observations ([1]; 0.112 kg/h): Leaf alteration of new growth. | plant growth regulant observations ([1]; 0.56 kg/h): Leaf alteration of new growth.

COC(=N)Cn1c(=O)oc2ccccc21 [Compound 22]
plant growth regulant observations ([1]; 0.56 kg/h): Leaf alteration of new growth.

COC(=N)Cn1c(=O)sc2cc(Br)ccc21 [Compound 20]
plant growth regulant observations ([1]; 0.112 kg/h): Leaf alteration of new growth.

COC(=N)Cn1c(=O)oc2ccccc21 [Compound 35]
plant growth regulant observations ([1]; 0.112 kg/h): No response. | plant growth regulant observations ([1]; 0.56 kg/h): No response.

COC(=N)Cn1c(=O)sc2ccccc21 [Compound 11]
post-emergent herbicidal rating ([11]; 1.12 kg/h, 4 WAT): 1 (25-49) | post-emergent herbicidal rating ([11]; 5.6 kg/h, 4 WAT): 3 (75-99) | post-emergent herbicidal rating ([12]; 1.12 kg/h, 4 WAT): 1 (25-49) | post-emergent herbicidal rating ([12]; 5.6 kg/h, 4 WAT): 3 (75-99) | post-emergent herbicidal rating ([13]; 1.12 kg/h, 4 WAT): 1 (25-49) | post-emergent herbicidal rating ([13]; 5.6 kg/h, 4 WAT): 1 (25-49) | post-emergent herbicidal rating ([14]; 1.12 kg/h, 4 WAT): 0 (0-24) | post-emergent herbicidal rating ([14]; 5.6 kg/h, 4 WAT): 0 (0-24) | post-emergent herbicidal rating ([15]; 1.12 kg/h, 4 WAT): 2 (50-74) | post-emergent herbicidal rating ([15]; 5.6 kg/h, 4 WAT): 4 (100) | post-emergent herbicidal rating ([16]; 1.12 kg/h, 4 WAT): 0 (0-24) | post-emergent herbicidal rating ([16]; 5.6 kg/h, 4 WAT): 1 (25-49) | post-emergent herbicidal rating ([17]; 1.12 kg/h, 4 WAT): 2 (50-74) | post-emergent herbicidal rating ([17]; 5.6 kg/h, 4 WAT): 4 (100) | post-emergent herbicidal rating ([18]; 1.12 kg/h, 4 WAT): 0 (0-24) | post-emergent herbicidal rating ([18]; 5.6 kg/h, 4 WAT): 0 (0-24) | post-emergent herbicidal rating ([19]; 1.12 kg/h, 4 WAT): 0 (0-24) | post-emergent herbicidal rating ([19]; 5.6 kg/h, 4 WAT): 1 (25-49) | pre-emergent herbicidal rating ([2]; 1.12 kg/h, 4 WAT): 2 (50-74) | pre-emergent herbicidal rating ([2]; 5.6 kg/h, 4 WAT): 3 (75-100) | pre-emergent herbicidal rating ([3]; 1.12 kg/h, 4 WAT): 1 (25-49) | pre-emergent herbicidal rating ([3]; 5.6 kg/h, 4 WAT): 3 (75-100) | pre-emergent herbicidal rating ([4]; 1.12 kg/h, 4 WAT): 1 (25-49) | pre-emergent herbicidal rating ([4]; 5.6 kg/h, 4 WAT): 1 (25-49) | pre-emergent herbicidal rating ([5]; 1.12 kg/h, 4 WAT): 0 (0-24) | pre-emergent herbicidal rating ([5]; 5.6 kg/h, 4 WAT): 0 (0-24) | pre-emergent herbicidal rating ([6]; 1.12 kg/h, 4 WAT): 1 (25-49) | pre-emergent herbicidal rating ([6]; 5.6 kg/h, 4 WAT): 3 (75-100) | pre-emergent herbicidal rating ([7]; 1.12 kg/h, 4 WAT): 0 (0-24) | pre-emergent herbicidal rating ([7]; 5.6 kg/h, 4 WAT): 0 (0-24) | pre-emergent herbicidal rating ([8]; 1.12 kg/h, 4 WAT): 1 (25-49) | pre-emergent herbicidal rating ([8]; 5.6 kg/h, 4 WAT): 2 (50-74) | pre-emergent herbicidal rating ([9]; 1.12 kg/h, 4 WAT): 0 (0-24) | pre-emergent herbicidal rating ([9]; 5.6 kg/h, 4 WAT): 1 (25-49) | pre-emergent herbicidal rating ([10]; 1.12 kg/h, 4 WAT): 0 (0-24) | pre-emergent herbicidal rating ([10]; 5.6 kg/h, 4 WAT): 2 (50-74)

COC(=N)CCCn1c(=O)sc2ccccc21 [Compound 18]
plant growth regulant observations ([1]; 0.112 kg/h): No response. | plant growth regulant observations ([1]; 0.56 kg/h): No response.

COC(=N)C(C)n1c(=O)sc2ccccc21 (stereo not drawn) [Compound 32]
plant growth regulant observations ([1]; 0.112 kg/h): Inhibition of dry weight.

COC(=N)Cn1c(=O)sc2ccc(Cl)cc21 [Compound 27]
post-emergent herbicidal rating ([11]; 0.28 kg/h, 2 WAT): 1 (25-49) | post-emergent herbicidal rating ([11]; 1.12 kg/h, 4 WAT): 2 (50-74) | post-emergent herbicidal rating ([11]; 5.6 kg/h, 4 WAT): 3 (75-99) | post-emergent herbicidal rating ([12]; 0.28 kg/h, 2 WAT): 0 (0-24) | post-emergent herbicidal rating ([12]; 1.12 kg/h, 4 WAT): 2 (50-74) | post-emergent herbicidal rating ([12]; 5.6 kg/h, 4 WAT): 4 (100) | post-emergent herbicidal rating ([13]; 0.28 kg/h, 2 WAT): 0 (0-24) | post-emergent herbicidal rating ([13]; 1.12 kg/h, 4 WAT): 0 (0-24) | post-emergent herbicidal rating ([13]; 5.6 kg/h, 4 WAT): 1 (25-49) | post-emergent herbicidal rating ([14]; 0.28 kg/h, 2 WAT): 0 (0-24) | post-emergent herbicidal rating ([14]; 1.12 kg/h, 4 WAT): 0 (0-24) | post-emergent herbicidal rating ([14]; 5.6 kg/h, 4 WAT): 0 (0-24) | post-emergent herbicidal rating ([15]; 0.28 kg/h, 2 WAT): 0 (0-24) | post-emergent herbicidal rating ([15]; 1.12 kg/h, 4 WAT): 3 (75-99) | post-emergent herbicidal rating ([15]; 5.6 kg/h, 4 WAT): 4 (100) | post-emergent herbicidal rating ([16]; 0.28 kg/h, 2 WAT): 0 (0-24) | post-emergent herbicidal rating ([16]; 1.12 kg/h, 4 WAT): 0 (0-24) | post-emergent herbicidal rating ([16]; 5.6 kg/h, 4 WAT): 0 (0-24) | post-emergent herbicidal rating ([17]; 0.28 kg/h, 2 WAT): 1 (25-49) | post-emergent herbicidal rating ([17]; 1.12 kg/h, 4 WAT): 3 (75-99) | post-emergent herbicidal rating ([17]; 5.6 kg/h, 4 WAT): 3 (75-99) | post-emergent herbicidal rating ([18]; 0.28 kg/h, 2 WAT): 0 (0-24) | post-emergent herbicidal rating ([18]; 1.12 kg/h, 4 WAT): 0 (0-24) | post-emergent herbicidal rating ([18]; 5.6 kg/h, 4 WAT): 0 (0-24) | post-emergent herbicidal rating ([19]; 0.28 kg/h, 2 WAT): 0 (0-24) | post-emergent herbicidal rating ([19]; 1.12 kg/h, 4 WAT): 0 (0-24) | post-emergent herbicidal rating ([19]; 5.6 kg/h, 4 WAT): 0 (0-24) | plant growth regulant observations ([1]; 2.8 kg/h): Plants died.
